Values of other authors as cited in article PMC8284440, “Toward New Transmission-Blocking Combination Therapies: Pharmacokinetics of 10-Amino-Artemisinins and 11-Aza-Artemisinin and Comparison with Dihydroartemisinin and Artemether” (Antimicrobial Agents and Chemotherapy, 2021).
Like-named read-outs stand apart in the source and are kept apart here.

Columns and labels:
[1] = test system: late stage (IV-V) P. falciparum NF54 gametocytes; parameters: method as in ref 4 (supplement; main text 62); conditions: Table S4, n = 1; ref 4 (supplement; main text 62); read-out: Late stage IC50 (pLDH 72 + 72 h); cited from earlier work
[2] = test system: WI-38 HFLF; parameters: method as in ref 4 (supplement; main text 62); conditions: Table S2; ref 4 (supplement; main text 62); read-out: Cytotoxicities IC50 WI-38 HFLF; cited from earlier work
[3] = test system: P. falciparum K1; parameters: method as in ref 1 and 2 (supplement; main text 47, 48); conditions: Table S1, ± SEM; ref 1 and 2 (supplement; main text 47, 48); cited from earlier work
[4] = test system: CamWTC580Y, Cam3.IIC580Y and Cam3.IIRev strains; parameters: method as in PMID 25049252; conditions: read-out: mean IC50 across Cambodian strains; cited from earlier work
[5] = test system: P. falciparum TM91-C235; parameters: method as in ref 5 (supplement; main text 63); conditions: CQ and mefloquine resistant; ref 5 (supplement; main text 63); read-out: Antimalarial activities IC50 TM91-C235; cited from earlier work
[6] = parameters: method as in PMID 16444785, PMID 18559649; conditions: female rats, cited from earlier work
[7] = test system: P. falciparum D6; parameters: method as in ref 5 (supplement; main text 63); conditions: CQ sensitive; ref 5 (supplement; main text 63); read-out: Antimalarial activities IC50 D6; cited from earlier work
[8] = test system: murine cerebral malaria; parameters: method as in PMID 20691118; conditions: prescribed low dose levels; cited from earlier work
[9] = in vivo; cited from earlier work
[10] = parameters: method as in PMID 16444785; conditions: cited from earlier work
[11] = test system: P. falciparum W2; parameters: method as in PMID 25049252; conditions: read-out: activity against W2; cited from earlier work
[12] = test system: W2 ring-stage parasites; parameters: method as in PMID 25288088; conditions: not in a concentration-dependent manner; cited from earlier work
[13] = test system: P. falciparum TM-C2B; parameters: method as in ref 5 (supplement; main text 63); conditions: atovaquone and CQ resistant; ref 5 (supplement; main text 63); read-out: Antimalarial activities IC50 TM-C2B; cited from earlier work
[14] = test system: nonsevere malaria; parameters: method as in PMID 18559649, PMID 30902052, doi:10.4103/jpp.JPP_23_20; conditions: patients with nonsevere malaria; cited from earlier work

C[C@@H]1CC[C@H]2[C@@H](C)C(=O)N[C@@H]3O[C@@]4(C)CC[C@@H]1[C@]32OO4 [11-Aza-artemisinin 11, 11-aza-artemisinin]
IC50 [1]: 622 nM
IC50 [2]: > 100000 nM

C[C@H]1[C@H](N2CCSCC2)O[C@@H]2O[C@@]3(C)CC[C@H]4[C@H](C)CC[C@@H]1[C@@]24OO3 [Artemiside 5, artemiside]
IC50 [3]: 1.6 ± 0.4 nM

C[C@H]1[C@H](N2CCS(=O)(=O)CC2)O[C@@H]2O[C@@]3(C)CC[C@H]4[C@H](C)CC[C@@H]1[C@@]24OO3 [Artemisone 6, artemisone]
IC50 [4]: 2.4 nM
IC50 [5]: 1.1 ± 0.5 nM
Cmax ([6]; single oral dose 3 mg/kg): 35 ng/mL
elimination half-life ([6]; single oral dose 3 mg/kg): 10.8 min
Cmax ([6]; single oral dose 10 mg/kg): 230 ng/mL
elimination half-life ([6]; single oral dose 10 mg/kg): 22.2 min
Cmax ([6]; single oral dose 30 mg/kg): 850 ng/mL
elimination half-life ([6]; single oral dose 30 mg/kg): 32.4 min
IC50 [7]: 1 ± 0.4 nM
Cure of murine cerebral malaria [8]: completely curative
artemisone equivalent concentrations at Tmax by bioassay versus LC/MS-MS, fold higher [9]: about 2.3 fold
Neurotoxicity [10]: nonneurotoxic
IC50 [11]: 1.9 nM
Induction of quiescence in W2 ring-stage parasites [12]: induce quiescence
IC50 [13]: 1.1 ± 0.4 nM
IC50 [3]: 1.01 ± 0.19 nM
Cure in phase IIa trial [14]: curative at one-third the dose level of artesunate

C[C@H]1[C@H](N2CCN(C(=O)Nc3ccc(F)cc3)CC2)O[C@@H]2O[C@@]3(C)CC[C@H]4[C@H](C)CC[C@@H]1[C@@]24OO3 [Arylurea 10]
IC50 [3]: 0.85 ± 0.1 nM

C[C@H]1[C@@H](O)O[C@@H]2O[C@@]3(C)CC[C@H]4[C@H](C)CC[C@@H]1[C@@]24OO3 [DHA 2, dihydroartemisinin]
IC50 [4]: 11.2 nM
IC50 [5]: 2.3 ± 0.7 nM
IC50 [7]: 1.7 ± 0.4 nM
Cure of murine cerebral malaria [8]: no cure
IC50 [11]: 5.2 nM
IC50 [13]: 2 ± 0.7 nM
IC50 [3]: 1.51 ± 0.33 nM

C[C@H]1[C@H](N2C=CS(=O)(=O)CC2)O[C@@H]2O[C@@]3(C)CC[C@H]4[C@H](C)CC[C@@H]1[C@@]24OO3 [M1 12]
IC50 [5]: 5 ± 0.6 nM
IC50 [7]: 4.7 ± 0.2 nM
Induction of quiescence in W2 ring-stage parasites [12]: induce quiescence
IC50 [13]: 8.6 ± 8.2 nM

C[C@H]1[C@H](NS(N)(=O)=O)O[C@@H]2O[C@@]3(C)CC[C@H]4[C@H](C)CC[C@@H]1[C@@]24OO3 [Sulfamide 7]
IC50 [3]: 1.78 ± 0.26 nM
